Data on one compound can be found in paper PMC2873968, “Novel protein kinase D inhibitors cause potent arrest in prostate cancer cell growth and motility” (BMC Chemical Biology, 2010).

Assay [1] concerns the target PDGFRα (Homo sapiens, UniProt P16234). Nature of the assay: Kinase profiling, single-dose in vitro kinase assay (Caliper Life Sciences). As to conditions: read-out: Average % Inhibition PDGFRα.
The target in assay [2] is AurA (Homo sapiens, UniProt O14965). Described as above. Particulars: read-out: Average % Inhibition AurA.
The target of assay [3] is PKCγ (Homo sapiens, UniProt P05129). The description is as above. As to conditions: read-out: Average % Inhibition PKCγ.
In assay [4] the target is JNK2 (Homo sapiens, UniProt P45984). Described as above. Particulars: read-out: Average % Inhibition JNK2.
The target of assay [5] is T1, PKCα (Homo sapiens, UniProt P17252).
T1 construct: purchased Cell Signaling Technology and Calbiochem
Details: method as in PMID 18829454. Particulars: previously reported; cited from earlier work.

AurA, sequence (O14965 whole entry): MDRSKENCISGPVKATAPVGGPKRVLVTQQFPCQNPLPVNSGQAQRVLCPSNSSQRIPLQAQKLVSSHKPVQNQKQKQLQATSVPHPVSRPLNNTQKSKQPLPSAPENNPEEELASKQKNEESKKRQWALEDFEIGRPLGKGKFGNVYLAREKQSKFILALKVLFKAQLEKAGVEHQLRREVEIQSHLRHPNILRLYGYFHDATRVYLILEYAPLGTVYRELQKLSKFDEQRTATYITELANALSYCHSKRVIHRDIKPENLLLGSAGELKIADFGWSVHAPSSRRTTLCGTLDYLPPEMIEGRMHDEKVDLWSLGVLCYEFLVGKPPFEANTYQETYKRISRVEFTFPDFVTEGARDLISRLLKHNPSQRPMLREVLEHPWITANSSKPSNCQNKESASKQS
PDGFRα, sequence (P16234 24-1089): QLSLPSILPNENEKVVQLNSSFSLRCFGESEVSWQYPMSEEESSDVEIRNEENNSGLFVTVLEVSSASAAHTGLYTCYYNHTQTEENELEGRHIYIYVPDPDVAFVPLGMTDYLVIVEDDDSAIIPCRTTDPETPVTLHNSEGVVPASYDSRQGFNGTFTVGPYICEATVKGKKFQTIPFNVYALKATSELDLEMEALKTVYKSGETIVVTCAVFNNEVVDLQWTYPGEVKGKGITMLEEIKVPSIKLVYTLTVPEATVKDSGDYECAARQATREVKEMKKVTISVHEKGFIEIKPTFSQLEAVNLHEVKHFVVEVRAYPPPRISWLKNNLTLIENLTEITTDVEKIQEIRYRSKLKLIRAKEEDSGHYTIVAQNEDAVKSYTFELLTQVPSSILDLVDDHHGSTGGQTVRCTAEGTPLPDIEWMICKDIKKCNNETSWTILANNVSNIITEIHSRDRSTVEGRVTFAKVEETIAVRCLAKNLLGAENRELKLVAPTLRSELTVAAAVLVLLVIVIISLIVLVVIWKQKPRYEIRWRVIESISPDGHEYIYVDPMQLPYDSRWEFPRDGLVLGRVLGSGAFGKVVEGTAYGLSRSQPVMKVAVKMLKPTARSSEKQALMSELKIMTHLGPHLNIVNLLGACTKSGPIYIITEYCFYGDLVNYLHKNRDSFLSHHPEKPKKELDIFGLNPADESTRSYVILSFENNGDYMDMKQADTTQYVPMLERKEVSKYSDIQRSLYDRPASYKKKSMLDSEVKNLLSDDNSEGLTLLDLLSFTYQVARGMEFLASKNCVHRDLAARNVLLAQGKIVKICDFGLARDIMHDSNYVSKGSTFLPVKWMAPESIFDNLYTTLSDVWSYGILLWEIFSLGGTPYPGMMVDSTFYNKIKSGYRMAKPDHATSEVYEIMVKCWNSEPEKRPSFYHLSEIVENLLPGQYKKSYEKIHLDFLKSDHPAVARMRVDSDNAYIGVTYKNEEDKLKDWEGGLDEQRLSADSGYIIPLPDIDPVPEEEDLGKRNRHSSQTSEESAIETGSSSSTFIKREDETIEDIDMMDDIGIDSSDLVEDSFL
JNK2, sequence (P45984 whole entry): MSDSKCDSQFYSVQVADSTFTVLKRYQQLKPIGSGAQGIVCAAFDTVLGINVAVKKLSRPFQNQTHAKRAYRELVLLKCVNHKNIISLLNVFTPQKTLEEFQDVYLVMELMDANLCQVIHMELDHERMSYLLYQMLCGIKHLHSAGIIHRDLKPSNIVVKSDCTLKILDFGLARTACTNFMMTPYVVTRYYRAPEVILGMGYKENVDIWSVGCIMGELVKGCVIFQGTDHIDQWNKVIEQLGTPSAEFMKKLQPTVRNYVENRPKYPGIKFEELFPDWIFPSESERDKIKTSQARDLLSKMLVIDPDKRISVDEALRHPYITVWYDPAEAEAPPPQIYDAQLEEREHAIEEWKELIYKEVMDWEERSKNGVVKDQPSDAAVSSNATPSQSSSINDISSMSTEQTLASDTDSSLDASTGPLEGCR

Consider `O=C1NCCCc2c1oc1ccc(O)cc21` [CID755673, 7-Hydroxy-2,3,4,5-tetrahydro-[1]benzoxolo[2,3-c]azepin-1-one], for which the inhibition at 10 µM in assay [1] was 5%; in assay [2] it was 7%; in assay [3], 30%; in assay [4], 36%. Further, in assay [5], the “inhibition of PKCα” value is reported as “did not inhibit”.

Broadly, the inhibition is the share of the control response that was lost under treatment.
